Holding throughout (assay): DTP human tumour cell line panel, 48 h
Assay [1] deals with A498 renal.
Assay [2] concerns SK-MEL-28 melanoma.
Assay [3] deals with HCC-2998 colon.
Assay [4] has as its system RPMI-8226 leukemia.
In assay [5] the test system is HL-60(TB) leukemia.
Assay [6] has as its system MCF7 breast.
The test system of assay [7] is BT-549 breast.
The subject of assay [8] is EKVX NSCLC.
The test system of assay [9] is UO-31 renal.
The test system of assay [10] is HCT-116 colon.

Drawing on PubChem BioAssay (NCI), this text covers GI50 and TGI for nine molecules.

Where “and” joins values, the source holds several entries; their conditions need not be identical. Equal entries are not always repeated.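 How tested: cells in 96-well plates exposed to compound for 48 hours at five concentrations. Here, GI50 denotes the concentration required for 50% inhibition of growth. TGI: total growth inhibition.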

For orientation: GI50 means the concentration giving 50% growth inhibition. As a reminder, the TGI is the concentration at which net growth stops. High values mean lower sensitivity of the cells, low ones greater sensitivity of the cells.

With `N#Cc1ccc2c(c1)C(=O)c1c-2n(CCCN=[N+]=[N-])c(=O)c2cc([N+](=O)[O-])ccc12`, the GI50 in [1] is more than 50 µM; in assay [2] it was more than 50 µM; in assay [3], more than 50 µM; in assay [4], 21.3 µM; in [5], more than 50 µM; in [6], 1.35 µM. Also, the GI50 is 5.49 µM in [7], more than 50 µM in assay [8], 13.1 µM in [9] and 3.91 µM in assay [10]. For the same molecule, the TGI in assay [1], in [2], in assay [3], in [4], in assay [5] and in [6] was more than 50 µM throughout. Also, the TGI in assay [7], in assay [8], in [9] and in assay [10] was more than 50 µM in each case.

`N#CC1CCc2c(c(-c3cn[nH]c3C(F)(F)F)nc3c(F)cc4[nH]ncc4c23)C1` (centres undefined): the GI50 in [1] was 2.09 µM; in assay [2], 4.43 µM; in [3], 11 µM; in assay [4], 8.4 µM; in assay [5] it was 2.56 µM; in [6], 3.5 µM. Also, the GI50 in assay [7] is 3.16 µM; in assay [8], 5.93 µM; in assay [9], 9.64 µM; in [10], 3.15 µM. The TGI in assay [1] is 6.75 µM; in [2] it was 30.4 µM; in assay [3] it was 28.1 µM; in [4] it was 78.1 µM; in assay [5] it was 16.9 µM; in assay [6] it was 47.4 µM. The TGI in assay [7] came out at 12.9 µM; in assay [8], 28.2 µM; in [9] it was 36.6 µM; in assay [10] it was 19.6 µM.

On to `CC[C@H](C)[C@H](NC(=O)c1nccn1C)C(=O)N(C)[C@H](C[C@@H](OC(C)=O)c1nc(C(=O)N[C@@H](Cc2ccccc2)C[C@H](C)C(=O)OC)cs1)C(C)C`, for which the GI50 in assay [1] is 1.11 µM; in assay [2] it was 5.05 µM; in [3] it was 1.08 µM; in assay [4], 0.531 µM; in assay [5], 0.642 µM; in assay [6], 0.187 µM. In addition, the GI50 in assay [7] is 0.398 µM; in assay [8], 1.72 µM; in assay [9], 2.9 µM; in assay [10], 0.724 µM. Also, the TGI is more than 33.3 µM in assay [1]; more than 33.3 µM in assay [2]; more than 33.3 µM in [3]; 12.1 µM in assay [4]; 1.78 µM in [5]; more than 33.3 µM in assay [6]. In addition, the TGI was 3.94 µM in assay [7], more than 33.3 µM in [8], more than 33.3 µM in assay [9] and more than 33.3 µM in [10].

With `CC(C)(F)C[C@H](N[C@@H](c1ccc(-c2ccc(S(C)(=O)=O)cc2)cc1)C(F)(F)F)C(=O)NC1(C#N)CC1`, the GI50 was 33.6 µM and 28 µM in assay [1]; 49.1 µM and 36.3 µM in assay [2]; more than 100 µM in assay [3]; more than 100 µM in assay [4]; more than 100 µM in [5]; 35 µM and > 100 µM in [6]. The GI50 is 8.65 µM and 28.2 µM in [7]; 30.7 µM in [8]; 49.3 µM and 23.2 µM in assay [9]; 22 µM and > 100 µM in assay [10]. The TGI is 55 µM and > 100 µM in [1]; 55 µM and > 100 µM in [2]; more than 100 µM in assay [3]; more than 100 µM in assay [4]; more than 100 µM in assay [5]; 55 µM and > 100 µM in assay [6]. Besides, the TGI in [7] is 55 µM and 82.8 µM; in assay [8], 55 µM; in assay [9], 55 µM and > 100 µM; in assay [10] it was 55 µM and > 100 µM.

As for `c1ccc(-c2cnc3nc4ccccc4nc3n2)cc1`, the TGI was 27.1 µM in [1]; 32.8 µM in assay [2]; 43.3 µM in assay [3]; 23.9 µM in assay [4]; more than 100 µM in [5]; 4.71 µM in [6]. For the same molecule, the TGI was 29 µM in assay [7], 16.5 µM in [8], 19.5 µM in assay [9] and 21.9 µM in [10].

As to `CC(=O)Nc1cc2cc(NS(=O)(=O)c3cc(C(F)(F)F)cc(C(F)(F)F)c3)ccc2oc1=O`, the TGI in [1], in assay [2], in [3], in assay [4], in [5] and in [6] was more than 100 µM each time. Further, the TGI in assay [7], in assay [8], in assay [9] and in [10] was more than 100 µM each time.

In the case of `COc1cc(/C=C\c2cc(OC)c(OC)c(OC)c2)cc(NS(=O)(=O)c2cccc(Cl)c2)c1OC`, the GI50 in assay [1] was 0.0218 µM; in assay [2], 1.61 µM; in [3], 0.313 µM; in [4] it was 0.0597 µM; in [5] it was 0.032 µM; in [6], 0.0533 µM. Moreover, the GI50 in [7] is 0.0338 µM; in assay [8] it was 0.264 µM; in [9], 0.0937 µM; in assay [10] it was 0.0368 µM. Further, the TGI in assay [1] is 0.0798 µM; in [2] it was 49 µM; in assay [3], 60.6 µM; in assay [4], more than 100 µM; in assay [5], more than 100 µM; in assay [6] it was more than 100 µM. Moreover, the TGI in [7] is 2.46 µM; in [8], more than 100 µM; in assay [9] it was more than 100 µM; in assay [10], more than 100 µM.

As for `O=C(/C=C/c1ccccc1)CCc1c(O)c2ccccc2oc1=O`, the TGI in [1], in [2], in assay [3], in [4], in [6] and in [7] was more than 100 µM throughout. Besides, the TGI in assay [8], in assay [9] and in assay [10] was more than 100 µM in each case.

With `COc1ccc(S(=O)(=O)n2c3ccccc3n3ncc(-c4nnc(C)o4)c23)cc1`, the GI50 in assay [1] was 0.298 µM; in assay [2], 11.3 µM; in [3], 1.38 µM; in assay [4] it was 0.527 µM; in assay [5], 0.273 µM; in [6] it was 0.397 µM. Besides, the GI50 in assay [7] was 0.516 µM; in assay [8], 1.12 µM; in [9] it was 0.474 µM; in assay [10], 0.387 µM. The TGI is 1.9 µM in assay [1]; 34.8 µM in assay [2]; 16.8 µM in assay [3]; 24.7 µM in [4]; 0.841 µM in [5]; more than 69.8 µM in assay [6]. Besides, the TGI is 20 µM in assay [7], more than 100 µM in assay [8], 21.7 µM in assay [9] and 24 µM in [10].
